For one test, the target named is T1, Human alpha-thrombin (Homo sapiens, UniProt P00734).
T1 construct: Human alpha-thrombin (Enzyme Research Labs); purchased Enzyme Research Labs
Nature of the test: Thrombin counterscreen for selectivity, fluorogenic substrate assay. The following applies: Human alpha-thrombin 12.5 nM, Boc-Val-Pro-Arg-AMC 20 μM, 10 min preincubation. The test is classed as biochemical. As to the method:
Counterscreens for Selectivity:
In a 96-well white opaque plate, 80 μl of assay buffer was added to each well. Test compounds were added, and serially diluted as above, to generate a concentration range of approximately 1-100 μM. […] 80 μl of this enzyme solution was added to the assay wells. The enzyme/compound mixtures were incubated for 10 minutes at room temperature. Fluorogenic substrate (Boc-Val-Pro-Arg-7-amido-4-methylcoumarin; Sigma) was added to assay wells at a final concentration of 20 μM. The assay plate was spun for 1 minute at 1500 g and then read at 37° C. in a SpectraMax M2 plate reader (λex=380 nm and λem=460 nm). Activity was quantified as the rate of change in fluorescence, which corresponds to the rate of substrate cleavage.

The next test addresses T2, Human FXIIa (Homo sapiens, UniProt P00748).
T2 construct: active coagulation factor XII (FXIIa); purchased Enzyme Research Labs
T2 sequence (P00748 373-615 limits assumed): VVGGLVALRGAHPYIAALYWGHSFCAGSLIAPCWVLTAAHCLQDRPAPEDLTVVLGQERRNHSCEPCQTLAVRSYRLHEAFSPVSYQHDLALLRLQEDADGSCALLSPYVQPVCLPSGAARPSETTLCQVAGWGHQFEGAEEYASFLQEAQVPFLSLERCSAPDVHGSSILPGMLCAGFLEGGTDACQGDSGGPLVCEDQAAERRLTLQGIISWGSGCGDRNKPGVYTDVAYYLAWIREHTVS
T2 sequence (P00748 20-372 partner limits assumed): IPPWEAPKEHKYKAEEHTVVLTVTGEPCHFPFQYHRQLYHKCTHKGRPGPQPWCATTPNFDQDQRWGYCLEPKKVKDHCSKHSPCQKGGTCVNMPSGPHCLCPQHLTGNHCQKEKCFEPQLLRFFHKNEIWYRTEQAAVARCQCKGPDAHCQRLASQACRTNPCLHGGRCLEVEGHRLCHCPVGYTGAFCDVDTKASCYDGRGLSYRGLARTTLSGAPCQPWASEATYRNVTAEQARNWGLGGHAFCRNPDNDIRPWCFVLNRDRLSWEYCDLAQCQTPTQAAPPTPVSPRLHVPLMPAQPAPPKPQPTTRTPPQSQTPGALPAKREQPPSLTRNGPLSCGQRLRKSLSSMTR
Nature of the test: Factor XIIa (FXIIa) inhibitory activity, chromogenic substrate assay. Format: biochemical. The following applies: Human FXIIa 12.5 nM, Pefachrome XIIa 400 μM, 10 min preincubation. Put shortly: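 Activity was taken as the rate of absorbance increase at 405 nm, read at 37 °C after adding 400 μM (final) Pefachrome XIIa. Compounds spanning roughly 1–100 μM were first preincubated with enzyme for 10 min at room temperature in HEPES pH 7.4-buffered HBSS/TBS-Tween.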

The IC50 is the concentration that inhibits the measured activity by half. Read a low IC50 as greater potency. In the case of `CCc1cc2c(C(=O)n3nc4c(c3N)CCCC4)cccc2n1CC` (single isomer, unassigned) [Example 68, (3-amino-4,5,6,7-tetrahydroindazol-2-yl)(1,2-diethyl-1H-indol-4-yl)methanone], the IC50 on Human alpha-thrombin amounted to 40 µM; against Human FXIIa, 10 nM.

Regarding `Cn1ccc2c(C(=O)n3nc4c(c3N)CCCC4)cccc21` (single isomer, unassigned) [Example 7, (3-Amino-4,5,6,7-tetrahydroindazol-2-yl)(1-methyl-1H-indol-4-yl)methanone], the IC50 turned out to be 30 µM at Human alpha-thrombin and 150 nM at Human FXIIa.

Turning to `Nc1c2c(nn1C(=O)C1CCCc3ccccc31)CCCC2` (single isomer, unassigned) [Example 5, (S*)-(3-Amino-4,5,6,7-tetrahydroindazol-2-yl)(1,2,3,4-tetrahydronaphthalen-1-yl)methanone], the figures for the IC50 on Human alpha-thrombin and against Human FXIIa were over 50 µM and 1700 nM, respectively.

On to `Nc1c2c(nn1C(=O)[C@@H]1CCNc3ccc(F)cc31)CC[C@H](O)C2` (relative stereo) [Example 134, ((5S*)-3-amino-5-hydroxy-4,5,6,7-tetrahydro-1H-indazol-2-yl)((4R*)-6-fluoro-1,2,3,4-tetrahydroquinolin-4-yl)methanone], for which the IC50 against Human alpha-thrombin is over 75 µM; on Human FXIIa, 1200 nM.

On to `Nc1c2c(nn1C(=O)C1CCNc3ccc(F)cc31)CCC(NC(=O)OCc1ccccc1)C2` (single isomer, unassigned) [Example 190, Benzyl N-[(5S*)-3-amino-2-[(6-fluoro-1,2,3,4-tetrahydroquinolin-4-yl)carbonyl]-4,5,6,7-tetrahydro-2H-indazol-5-yl]carbamate], for which the IC50 is over 60 µM on Human alpha-thrombin and 400 nM at Human FXIIa.

Turning to `Nc1c2c(nn1C(=O)[C@H]1CCCc3[nH]c(Cl)cc31)CC[C@H](O)C2` (single isomer, unassigned) [Example 127, ((5S*)-3-amino-5-hydroxy-4,5,6,7-tetrahydroindazol-2-yl)((4S*)-2-chloro-4,5,6,7-tetrahydro-1H-indol-4-yl)methanone], the IC50 was over 80 µM against Human alpha-thrombin and 350 nM at Human FXIIa.

Consider `Cc1cc2ccc(C(=O)n3nc4c(c3N)CCCC4)cc2o1` [Example 60, (3-amino-4,5,6,7-tetrahydroindazol-2-yl)(2-methylbenzofuran-6-yl)methanone], for which the IC50 stood at 22 µM on Human alpha-thrombin and 17000 nM against Human FXIIa.

Take `Nc1nn(C(=O)c2cccc3[nH]c(Cl)cc23)c2c1CCCC2` (single isomer, unassigned) [Example 56, (3-amino-4,5,6,7-tetrahydroindazol-1-yl)(2-chloro-1H-indol-4-yl)methanone]: the IC50 is over 100 µM against Human alpha-thrombin and 29000 nM against Human FXIIa.

As for `Nc1c2c(nn1C(=O)[C@@H]1CCNc3ccccc31)CC[C@@H](O)C2` (single isomer, unassigned) [Example 166, ((5R*)-3-amino-5-hydroxy-4,5,6,7-tetrahydroindazol-2-yl)((4R*)-1,2,3,4-tetrahydroquinolin-4-yl)methanone], the IC50 at Human alpha-thrombin was over 100 µM.

As to `CN1CCC(C(=O)n2nc(N)c3c2CCCC3)c2ccccc21` (single isomer, unassigned) [Example 26, (3-amino-4,5,6,7-tetrahydroindazol-1-yl)(1-methyl-1,2,3,4-tetrahydroquinolin-4-yl)methanone], the IC50 on Human alpha-thrombin is over 80 µM.

As for `Nc1nn(C(=O)c2cccc3c2ccn3-c2ccccc2)c2c1CCCC2` (single isomer, unassigned) [Example 21, (3-amino-4,5,6,7-tetrahydroindazol-1-yl)(1-phenyl-1H-indol-4-yl)methanone], on Human alpha-thrombin, the IC50 is over 100 µM.

Consider `C=Cc1cc2c(C(=O)n3nc(N)c4c3CCCC4)cccc2[nH]1` (single isomer, unassigned) [Example 71, (3-amino-4,5,6,7-tetrahydroindazol-1-yl)(2-vinyl-1H-indol-4-yl)methanone], for which the IC50 against Human alpha-thrombin was 55 µM.

Take `Nc1nn(C(=O)C2CCNc3ccc(F)cc32)c2c1CC(F)CC2` (single isomer, unassigned) [Example 139, ((5R*)-3-amino-5-fluoro-4,5,6,7-tetrahydroindazol-1-yl)((4RS)-6-fluoro-1,2,3,4-tetrahydroquinolin-4-yl)methanone]: on Human FXIIa, it took 85000 nM to reach half-maximal inhibition (IC50).

The molecule `Nc1c2c(nn1C(=O)[C@@H]1CCNc3c(Cl)cccc31)CC[C@H](N)C2` (relative stereo) [Example 216, ((4R*)-8-chloro-1,2,3,4-tetrahydroquinolin-4-yl)((5S*)-3,5-diamino-4,5,6,7-tetrahydroindazol-2-yl)methanone] yielded an IC50 at Human FXIIa of 3000 nM.

For `CN1CCC(C(=O)n2nc3c(c2N)CCCC3)c2ccccc21` (single isomer, unassigned) [Example 72, (S*)-(3-amino-4,5,6,7-tetrahydroindazol-2-yl)(1-methyl-1,2,3,4-tetrahydroquinolin-4-yl)methanone], the IC50 against Human FXIIa was determined as 150 nM.

In turn, `Nc1c2c(nn1C(=O)[C@@H]1CCNc3ccc(F)cc31)CC[C@H](N)C2` (stereo in doubt) [Example 193, ((5S*)-3,5-diamino-4,5,6,7-tetrahydroindazol-2-yl)((4R*)-6-fluoro-1,2,3,4-tetrahydroquinolin-4-yl)methanone] yielded an IC50 against Human FXIIa of 4000 nM.

At Human FXIIa, `Nc1c2c(nn1C(=O)C1CCNc3cc(C(F)(F)F)ccc31)CCCC2` (centres unmarked) [Example 105, (3-amino-4,5,6,7-tetrahydro-2H-indazol-2-yl)(7-(trifluoromethyl)-1,2,3,4-tetrahydroquinolin-4-yl)methanone] showed an IC50 of 1800 nM.

Turning to `Nc1nn(C(=O)C2CCCc3[nH]ccc32)c2c1CCCC2` (centres unmarked) [Example 93, (3-amino-4,5,6,7-tetrahydroindazol-1-yl)(4,5,6,7-tetrahydro-1H-indol-4-yl)methanone], the IC50 on Human FXIIa was over 100000 nM.

On Human FXIIa, `Nc1nn(C(=O)C2CCNc3c(Cl)cccc32)c2c1CCC(O)C2` (single isomer, unassigned) [Example 208, ((6S*)-3-amino-6-hydroxy-4,5,6,7-tetrahydroindazol-1-yl)(8-chloro-1,2,3,4-tetrahydroquinolin-4-yl)methanone] returned an IC50 of over 100000 nM.

In turn, `Nc1c2c(nn1C(=O)c1cccc3c1CC(=O)N3)CCCC2` (single isomer, unassigned) [Example 64, 4-(3-amino-4,5,6,7-tetrahydro-2H-indazole-2-carbonyl)indolin-2-one] yielded a concentration for half-maximal inhibition (IC50) on Human FXIIa of 200 nM.

At Human alpha-thrombin, `Nc1nn(C(=O)c2c[nH]c3ccccc23)c2c1CCCC2` [Example 155] returned an IC50 of over 100 µM.

Regarding `CCc1cc2c(C(=O)n3nc4c(c3N)CCCC4)cccc2n1C` (single isomer, unassigned) [Example 66, (3-amino-4,5,6,7-tetrahydroindazol-2-yl)(2-ethyl-1-methyl-1H-indol-4-yl)methanone], the IC50 at Human FXIIa came out at 10 nM.

`Nc1nn(C(=O)[C@H]2CCNc3ccc(F)cc32)c2c1C[C@H](O)CC2` (relative stereo) [Example 131, ((5R*)-3-amino-5-hydroxy-4,5,6,7-tetrahydro-2H-indazol-1-yl)((4S*)-6-fluoro-1,2,3,4-tetrahydroquinolin-4-yl)methanone] had an IC50 against Human FXIIa of over 90000 nM.

`Nc1c2c(nn1C(=O)[C@H]1CCNc3c(Cl)cccc31)CC[C@@H](O)C2` (single isomer, unassigned) [Example 204, ((5R*)-3-amino-5-hydroxy-4,5,6,7-tetrahydroindazol-2-yl)((4S*)-8-chloro-1,2,3,4-tetrahydroquinolin-4-yl)methanone] registered an IC50 against Human FXIIa of 40 nM.

`Nc1c2c(nn1C(=O)C1CCCc3[nH]c(Br)cc31)CCCC2` (single isomer, unassigned) [Example 108, (S*)-(3-amino-4,5,6,7-tetrahydroindazol-2-yl)(2-bromo-4,5,6,7-tetrahydro-1H-indol-4-yl)methanone] displayed an IC50 on Human FXIIa of 70 nM.

In turn, `Cc1cccc2c1NCC[C@@H]2C(=O)n1nc2c(c1N)C[C@@H](N)CC2` (relative stereo) [Example 213, ((5S*)-3,5-diamino-4,5,6,7-tetrahydroindazol-2-yl)((4S*)-8-methyl-1,2,3,4-tetrahydroquinolin-4-yl)methanone] registered an IC50 against Human FXIIa of 60 nM.

In turn, `Nc1nn(C(=O)[C@@H]2CCNc3c(Cl)cccc32)c2c1CC[C@@H](O)C2` (single isomer, unassigned) [Example 212, ((6R*)-3-amino-6-hydroxy-4,5,6,7-tetrahydroindazol-1-yl)((4R*)-8-chloro-1,2,3,4-tetrahydroquinolin-4-yl)methanone] yielded an IC50 at Human FXIIa of over 100000 nM.

The values above are taken from patent US10538512B2, “Aminoacylindazole immunomodulators for treatment of autoimmune diseases” (The Rockefeller University, priority 2016, dated 2020).
